Data published in patent US20130252816A1, “HERBICIDAL COMPOSITION AND USE THEREOF” (Syngenta Crop Protection LLC, priority 2010, published 2013).

Key:
Format in all cases: in vivo
[1] = system: Poa annua; assay: Example 1: adjuvants alone, visual % damage, pots in glasshouse
Protocol: (§1) The effect of different adjuvants (see Table 1 below) on the growth of broadleaf weed and grass species was investigated and compared to untreated (water only) control weeds.
(§2) Plates, each with 48 pots measuring 2.7 cm diameter and 5 cm deep, were filled with TKS1 growing media (Floragard, Germany). Seeds of Taraxacum officinale, Stellaria media or Poa annua were sown on the surface (10 to 20 per pot). Plants were grown in glasshouse at a temperature of 18 to 20° C. and at 60% relative humidity.
(§3) Plants were treated 15 (Stellaria, Poa) and 34 (Taraxacum) days after sowing with 60 μl of a 1.25, 2.5, 5 and 10% (w/v) solution of adjuvant using a hand airbrush.
(§4) Visual assessment of the percentage damage to the plant was carried out 1 day and 6 days from application.
(§5) Damage was assessed as wilting, desiccation or any other kind of visual injury in comparison to the untreated control (water only).

[2] = system: Stellaria media; assay: as above
Protocol: as §1, §2, §3, §4, §5

[3] = system: Taraxacum officinale; assay: as above
Protocol: as §1, §2, §3, §4, §5

[4] = system: Poa annua; assay: Example 2: alcohol ethoxylate adjuvants without glyphosate, visual % damage, tracksprayer 300 l/ha
Description: (§6) The effect of different types of alcohol ethoxylate (branched—Genapol X-series, and unbranched—Genapol O-series, differing degrees of ethoxylation, see Table 3 below for more details), on unwanted vegetation (broadleaf weed and grass species), in the absence of glyphosate, was investigated and compared to untreated (water only) control weeds.
(§7) Troughs (measuring 16 cm by 13 cm by 5 cm) were filled with local field soil. Seeds of Veronica persica, Stellaria media, Trifolium repens and Poa annua were sown 24 days before application of test samples. Plants were grown in the glasshouse at 18 to 20° C. and 60% relative humidity. Application of alcohol ethoxylate test samples was carried out using a tracksprayer, spraying at a rate of 300 l/ha. Plants were kept in glasshouse and visual assessment of the estimated percentage damage to the plant was carried out 1, 7, and 14 days from application.
as §5

[5] = system: Veronica persica; assay: as above
Description: as §6, §7, §5

[6] = system: Stellaria media; assay: as above
Description: as §6, §7, §5

[7] = system: Trifolium repens; assay: as above
Description: as §6, §7, §5

Tri-sec-butylphenol polyglycol ether with 6 Moles of ethoxylation [SAPOGENAT T 060]
35%: avg % damage 6 DAA Poa annua ([1]; adjuvant 10% w/v)
25%: avg % damage 6 DAA Poa annua ([1]; adjuvant 5% w/v)
20%: avg % damage 6 DAA Stellaria media ([2]; adjuvant 5% w/v) | avg % damage 6 DAA Stellaria media ([2]; adjuvant 10% w/v)
5%: avg % damage 6 DAA Poa annua ([1]; adjuvant 1.25% w/v) | avg % damage 6 DAA Poa annua ([1]; adjuvant 2.5% w/v)
0%: avg % damage 1 DAA Poa annua ([1]; adjuvant 1.25% w/v) | avg % damage 1 DAA Poa annua ([1]; adjuvant 2.5% w/v) | avg % damage 1 DAA Poa annua ([1]; adjuvant 5% w/v) | avg % damage 1 DAA Poa annua ([1]; adjuvant 10% w/v) | avg % damage 1 DAA Stellaria media ([2]; adjuvant 1.25% w/v) | avg % damage 6 DAA Stellaria media ([2]; adjuvant 1.25% w/v) | avg % damage 1 DAA Stellaria media ([2]; adjuvant 2.5% w/v) | avg % damage 6 DAA Stellaria media ([2]; adjuvant 2.5% w/v) | avg % damage 1 DAA Stellaria media ([2]; adjuvant 5% w/v) | avg % damage 1 DAA Stellaria media ([2]; adjuvant 10% w/v) | avg % damage 1 DAA Taraxacum officinale ([3]; adjuvant 1.25% w/v) | avg % damage 6 DAA Taraxacum officinale ([3]; adjuvant 1.25% w/v) | avg % damage 1 DAA Taraxacum officinale ([3]; adjuvant 2.5% w/v) | avg % damage 6 DAA Taraxacum officinale ([3]; adjuvant 2.5% w/v) | avg % damage 1 DAA Taraxacum officinale ([3]; adjuvant 5% w/v) | avg % damage 6 DAA Taraxacum officinale ([3]; adjuvant 5% w/v) | avg % damage 1 DAA Taraxacum officinale ([3]; adjuvant 10% w/v) | avg % damage 6 DAA Taraxacum officinale ([3]; adjuvant 10% w/v)

Oleyl alcohol polyglycol ether with 15 moles of ethoxylation [GenapolO150]
5%: avg % damage 6 DAA Stellaria media ([2]; adjuvant 1.25% w/v) | avg % damage 1 DAA Taraxacum officinale ([3]; adjuvant 5% w/v) | avg % damage 1 DAA Taraxacum officinale ([3]; adjuvant 10% w/v)
60%: avg % damage 6 DAA Stellaria media ([2]; adjuvant 10% w/v)
3%: avg % damage 6 DAA Taraxacum officinale ([3]; adjuvant 1.25% w/v) | avg % damage 6 DAA Taraxacum officinale ([3]; adjuvant 5% w/v) | avg % damage 6 DAA Taraxacum officinale ([3]; adjuvant 10% w/v)
13%: avg % damage 1 DAA Stellaria media ([2]; adjuvant 5% w/v)
20%: avg % damage 6 DAA Stellaria media ([2]; adjuvant 2.5% w/v)
30%: avg % damage 6 DAA Stellaria media ([2]; adjuvant 5% w/v)
0%: avg % damage 1 DAA Poa annua ([1]; adjuvant 1.25% w/v) | avg % damage 6 DAA Poa annua ([1]; adjuvant 1.25% w/v) | avg % damage 1 DAA Poa annua ([1]; adjuvant 2.5% w/v) | avg % damage 6 DAA Poa annua ([1]; adjuvant 2.5% w/v) | avg % damage 1 DAA Poa annua ([1]; adjuvant 5% w/v) | avg % damage 6 DAA Poa annua ([1]; adjuvant 5% w/v) | avg % damage 1 DAA Poa annua ([1]; adjuvant 10% w/v) | avg % damage 6 DAA Poa annua ([1]; adjuvant 10% w/v) | avg % damage 1 DAA Stellaria media ([2]; adjuvant 1.25% w/v) | avg % damage 1 DAA Stellaria media ([2]; adjuvant 2.5% w/v) | avg % damage 1 DAA Taraxacum officinale ([3]; adjuvant 1.25% w/v) | avg % damage 1 DAA Taraxacum officinale ([3]; adjuvant 2.5% w/v) | avg % damage 6 DAA Taraxacum officinale ([3]; adjuvant 2.5% w/v)
43%: avg % damage 1 DAA Stellaria media ([2]; adjuvant 10% w/v)

Oleyl alcohol polyglycol ether with 20 moles of ethoxylation [GenapolO200]
0%: avg % damage 1 DAA Poa annua ([1]; adjuvant 1.25% w/v) | avg % damage 6 DAA Poa annua ([1]; adjuvant 1.25% w/v) | avg % damage 1 DAA Poa annua ([1]; adjuvant 2.5% w/v) | avg % damage 6 DAA Poa annua ([1]; adjuvant 2.5% w/v) | avg % damage 1 DAA Poa annua ([1]; adjuvant 5% w/v) | avg % damage 6 DAA Poa annua ([1]; adjuvant 5% w/v) | avg % damage 1 DAA Poa annua ([1]; adjuvant 10% w/v) | avg % damage 6 DAA Poa annua ([1]; adjuvant 10% w/v) | avg % damage 1 DAA Stellaria media ([2]; adjuvant 1.25% w/v) | avg % damage 6 DAA Stellaria media ([2]; adjuvant 1.25% w/v) | avg % damage 1 DAA Stellaria media ([2]; adjuvant 2.5% w/v) | avg % damage 1 DAA Stellaria media ([2]; adjuvant 5% w/v) | avg % damage 1 DAA Taraxacum officinale ([3]; adjuvant 1.25% w/v) | avg % damage 1 DAA Taraxacum officinale ([3]; adjuvant 2.5% w/v) | avg % damage 6 DAA Taraxacum officinale ([3]; adjuvant 2.5% w/v) | avg % damage 1 DAA Taraxacum officinale ([3]; adjuvant 5% w/v) | avg % damage 6 DAA Taraxacum officinale ([3]; adjuvant 10% w/v)
3%: avg % damage 6 DAA Taraxacum officinale ([3]; adjuvant 1.25% w/v)
15%: avg % damage 1 DAA Stellaria media ([2]; adjuvant 10% w/v)
5%: avg % damage 6 DAA Stellaria media ([2]; adjuvant 2.5% w/v) | avg % damage 6 DAA Stellaria media ([2]; adjuvant 5% w/v) | avg % damage 6 DAA Taraxacum officinale ([3]; adjuvant 5% w/v)
30%: avg % damage 6 DAA Stellaria media ([2]; adjuvant 10% w/v)
10%: avg % damage 1 DAA Taraxacum officinale ([3]; adjuvant 10% w/v)

Oleyl alcohol polyglycol ether with 10 moles of ethoxylation [GenapolO100]
15%: avg % damage 1 DAA Stellaria media ([2]; adjuvant 5% w/v)
5%: avg % damage 6 DAA Poa annua ([1]; adjuvant 1.25% w/v) | avg % damage 6 DAA Stellaria media ([2]; adjuvant 1.25% w/v) | avg % damage 1 DAA Stellaria media ([2]; adjuvant 2.5% w/v) | avg % damage 1 DAA Taraxacum officinale ([3]; adjuvant 2.5% w/v) | avg % damage 1 DAA Taraxacum officinale ([3]; adjuvant 5% w/v) | avg % damage 1 DAA Taraxacum officinale ([3]; adjuvant 10% w/v)
50%: avg % damage 1 DAA Stellaria media ([2]; adjuvant 10% w/v)
30%: avg % damage 6 DAA Stellaria media ([2]; adjuvant 5% w/v)
55%: avg % damage 6 DAA Stellaria media ([2]; adjuvant 10% w/v)
0%: avg % damage 1 DAA Poa annua ([1]; adjuvant 1.25% w/v) | avg % damage 1 DAA Poa annua ([1]; adjuvant 2.5% w/v) | avg % damage 1 DAA Poa annua ([1]; adjuvant 5% w/v) | avg % damage 1 DAA Poa annua ([1]; adjuvant 10% w/v) | avg % damage 1 DAA Stellaria media ([2]; adjuvant 1.25% w/v) | avg % damage 1 DAA Taraxacum officinale ([3]; adjuvant 1.25% w/v) | avg % damage 6 DAA Taraxacum officinale ([3]; adjuvant 1.25% w/v) | avg % damage 6 DAA Taraxacum officinale ([3]; adjuvant 2.5% w/v) | avg % damage 6 DAA Taraxacum officinale ([3]; adjuvant 5% w/v) | avg % damage 6 DAA Taraxacum officinale ([3]; adjuvant 10% w/v)
10%: avg % damage 6 DAA Poa annua ([1]; adjuvant 2.5% w/v) | avg % damage 6 DAA Poa annua ([1]; adjuvant 5% w/v) | avg % damage 6 DAA Poa annua ([1]; adjuvant 10% w/v) | avg % damage 6 DAA Stellaria media ([2]; adjuvant 2.5% w/v)

Oleyl alcohol polyglycol ether with 8 moles of ethoxylation [GenapolO080]
5%: mean % damage 7 daa Poa annua ([4]; adjuvant 1% w/v) | mean % damage 7 daa Poa annua ([4]; adjuvant 1.5% w/v) | mean % damage 7 daa Poa annua ([4]; adjuvant 2% w/v) | mean % damage 7 daa Poa annua ([4]; adjuvant 2.5% w/v) | mean % damage 7 daa Veronica persica ([5]; adjuvant 1% w/v) | mean % damage 7 daa Veronica persica ([5]; adjuvant 2.5% w/v) | mean % damage 14 daa Stellaria media ([6]; adjuvant 1.5% w/v) | mean % damage 7 daa Stellaria media ([6]; adjuvant 2% w/v) | mean % damage 1 daa Trifolium repens ([7]; adjuvant 2% w/v) | mean % damage 1 daa Trifolium repens ([7]; adjuvant 2.5% w/v)
0%: mean % damage 1 daa Poa annua ([4]; adjuvant 1% w/v) | mean % damage 14 daa Poa annua ([4]; adjuvant 1% w/v) | mean % damage 1 daa Poa annua ([4]; adjuvant 1.5% w/v) | mean % damage 14 daa Poa annua ([4]; adjuvant 1.5% w/v) | mean % damage 1 daa Poa annua ([4]; adjuvant 2% w/v) | mean % damage 14 daa Poa annua ([4]; adjuvant 2% w/v) | mean % damage 1 daa Poa annua ([4]; adjuvant 2.5% w/v) | mean % damage 14 daa Poa annua ([4]; adjuvant 2.5% w/v) | mean % damage 1 daa Veronica persica ([5]; adjuvant 1% w/v) | mean % damage 1 daa Veronica persica ([5]; adjuvant 1.5% w/v) | mean % damage 7 daa Veronica persica ([5]; adjuvant 1.5% w/v) | mean % damage 1 daa Veronica persica ([5]; adjuvant 2% w/v) | mean % damage 7 daa Veronica persica ([5]; adjuvant 2% w/v) | mean % damage 14 daa Veronica persica ([5]; adjuvant 2% w/v) | mean % damage 1 daa Veronica persica ([5]; adjuvant 2.5% w/v) | mean % damage 14 daa Veronica persica ([5]; adjuvant 2.5% w/v) | mean % damage 1 daa Stellaria media ([6]; adjuvant 1% w/v) | mean % damage 7 daa Stellaria media ([6]; adjuvant 1% w/v) | mean % damage 14 daa Stellaria media ([6]; adjuvant 1% w/v) | mean % damage 1 daa Stellaria media ([6]; adjuvant 1.5% w/v) | mean % damage 7 daa Stellaria media ([6]; adjuvant 1.5% w/v) | mean % damage 1 daa Stellaria media ([6]; adjuvant 2% w/v) | mean % damage 14 daa Stellaria media ([6]; adjuvant 2% w/v) | mean % damage 1 daa Stellaria media ([6]; adjuvant 2.5% w/v) | mean % damage 7 daa Stellaria media ([6]; adjuvant 2.5% w/v) | mean % damage 1 daa Trifolium repens ([7]; adjuvant 1% w/v) | mean % damage 7 daa Trifolium repens ([7]; adjuvant 1% w/v) | mean % damage 14 daa Trifolium repens ([7]; adjuvant 1% w/v) | mean % damage 1 daa Trifolium repens ([7]; adjuvant 1.5% w/v) | mean % damage 7 daa Trifolium repens ([7]; adjuvant 1.5% w/v) | mean % damage 14 daa Trifolium repens ([7]; adjuvant 1.5% w/v) | mean % damage 7 daa Trifolium repens ([7]; adjuvant 2% w/v) | mean % damage 14 daa Trifolium repens ([7]; adjuvant 2% w/v)
10%: mean % damage 14 daa Veronica persica ([5]; adjuvant 1% w/v) | mean % damage 14 daa Veronica persica ([5]; adjuvant 1.5% w/v) | mean % damage 14 daa Stellaria media ([6]; adjuvant 2.5% w/v) | mean % damage 7 daa Trifolium repens ([7]; adjuvant 2.5% w/v) | mean % damage 14 daa Trifolium repens ([7]; adjuvant 2.5% w/v)
